Legend:
RRM2 = biological target: T1, RRM2 (Homo sapiens, UniProt P31350); assay: Thermal shift assay in HCT116 cells, RRM2; format: cell-based
T1 construct: endogenous in cells; host or cells: HCT116
T1 sequence (P31350 1-389): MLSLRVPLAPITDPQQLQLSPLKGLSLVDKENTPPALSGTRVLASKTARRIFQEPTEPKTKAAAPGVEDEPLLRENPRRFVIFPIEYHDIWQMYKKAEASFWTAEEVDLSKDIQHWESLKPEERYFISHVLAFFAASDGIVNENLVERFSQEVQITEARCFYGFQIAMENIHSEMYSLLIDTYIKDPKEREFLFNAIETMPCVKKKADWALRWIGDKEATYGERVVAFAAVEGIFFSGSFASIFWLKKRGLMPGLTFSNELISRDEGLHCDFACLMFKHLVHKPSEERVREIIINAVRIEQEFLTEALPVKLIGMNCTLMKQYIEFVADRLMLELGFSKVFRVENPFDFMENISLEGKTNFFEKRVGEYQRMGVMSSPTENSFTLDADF
Experimental: To investigate binding of DHS to RRM1 and RRM2, a thermal shift assay was performed in HCT116 cells treated with DMSO (vehicle), resveratrol, DHS, gemcitabine, or hydroxyurea (Hu). Gemcitabine is known to bind RRM1 (Plunkett et al., 1995 and Chen et al., 2011), and Hu has been reported to bind RRM2 (Thelander et al., 1985). […] DHS stabilized RRM2 protein in a dose responsive manner (5 to 20 μM DHS; FIG. 11A). To rule out nonspecific effects of DHS on RRM2, an in vitro thermal shift assay was conducted. Purified RRM1 and RRM2 were mixed and then incubated with DHS or Hu for 4 hours before performing the assay.

HCT116 cells [1] = assay: Cell-cycle assay; format: cell-based, human; conditions: 10 μM
Experimental: A cell-cycle assay was conducted to study whether DHS would affect cell-cycle progression.

HCT116 cells [2] = assay: BrdU incorporation by FACS; format: cell-based, human; conditions: reduced from 46.6%, 1 to 20 μM DHS
Text: To test whether DHS can repress DNA replication, BrdU incorporation was examined using an immunofluorescent assay. […] BrdU incorporation was tracked by fluorescence-activated cell sorting (FACS).

KB, KB-Gem and KB-Hu = assay: Cell survival of KB and resistant sublines; format: cell-based
Experimental: An oral cancer cell line, KB, and its gemcitabine-resistant and hydroxyurea resistant sublines, KB-Gem and KB-Hu, respectively, were treated with gemcitabine (FIG. 15A), hydroxyurea (FIG. 15B), or DHS (FIG. 15C).
Next, the effect of combined treatment with DHS and Gemcitabine or Hydroxyurea was investigated.

[3] = test system: HCT116 cells, U2OS cells, MDA-231/GFP cells, and PANC-1 cells; assay: Cytotoxicity across the four cancer cell lines (SAR summary); format: cell-based
Experimental: (§1) In vitro cytotoxicity assays. Cells growing in the Log phase were treated with various compounds at different concentrations (generally 0.137 to 100 μM) for 72 hours at 37° C. SRB assay (Vichai and Kirtikara, 2006) was performed and the absorbance at 510 nm was read with a plate reader. The proliferation rate was calculated according to the Manufacturer's instruction. The IC50 value for each compound was determined from dose-effect relationship using the CompuSyn software (version 1.0.1; CompuSyn, Inc, Paramus, N.J.) (Chou, 2006). Cell proliferating doubling time was monitored over a period of 72 hours.
Based on identification of resveratrol as a lead compound in the drug screening assays, the anti-cancer activity of synthetic resveratrol analogs (FIG. 2) was next investigated and compared to resveratrol using HCT116 cells, U2OS cells, MDA-231/GFP cells, and PANC-1 cells.
The structure activity relationship (SAR) of the derivatives of resveratrol were considered.

PANC-1 = assay: In vitro cytotoxicity (SRB assay), PANC-1; format: cell-based; conditions: Homo sapiens, 72 hours
Experimental: Cell lines and cell culture. HCT116, U205, PANC-1, MDA-231 cell lines were purchased from the American Type Culture Collection (Rockville, Md., US). Cells were cultured in the DMEM medium (Lonza, Basel, Switzerland) containing 10% fetal bovine serum (Gibco, Grand Island, N.Y., US), 100 Units/ml penicillin, 100 Units/mL streptomycin, […] L-glutamine (Gibco, Grand Island, N.Y., US) at 37° C. in a humidified atmosphere with 5% CO2.
as §1, with “Cells growing in the Log phase were treated with various compounds at different concentrations (generally 0.137 to 100 μM) for 72 hours at 37° C.” left out

HCT116 cells [4] = assay: DNA fiber assay; format: cell-based, human
Experimental: Thus, the effect of DHS on DNA replication and cell cycle progression was investigated. Replication fork speeds were examined by DNA fiber assay (FIG. 7A). Briefly, DHS, hydroxyurea (Hu), or Aphidicolin (Aph) was added to HCT116 cells 2 hours prior to labeling of DNA with iododeoxyuridine (IdU) and/or chlorodeoxyuridine (CldU).

SKOV3-CP7 = assay: DHS and cisplatin, SKOV3-CP7 cells; format: cell-based, human
Text: The effect of DHS on a human SKOV3 ovarian cell line and its cisplatin-resistant subline, SKOV3/CP7, was investigated.

HCT116 xenograft tumor = HCT116 xenograft tumor model; format: in vivo, nude mice; conditions: Day 38; DHS 50 mg/kg i.p. 14 consecutive days; cisplatin 8 mg/kg i.p.
Experimental: Xenograft mouse models. […] In xenograft studies, HCT116 (3×10^6 cells) and IGROV3/CP2 (5×10^6 cells) suspended in 100 μl of phosphate buffered saline (PBS, pH 7.4) were injected subcutaneously into the lower flank of the mice. Testing compounds were dissolved in DMSO/Tween 80/saline (10:10:80; v/v/v) buffer and were used to treat animals through intraperitoneal (i.p.) injection. […] The body weight of animals was measured throughout the study. Tumor diameters were measured with digital calipers, and the tumor volume in mm^3 was calculated by the formula: Volume=(width)^2×length/2.
HCT116 cells (5×10^6) were injected subcutaneously in nude mice and grown to approximately 100 mm^3 in volume. […] To study the preclinical toxicity of DHS, samples of hearts, livers, spleens, lung, and kidneys were collected on Day 38 and sections were stained for histological examination.

[5] = test system: phosphor-Chk1 (pChk1, Serine 345); assay: DNA damage markers by Western blot; format: cell-based, human; conditions: HCT116 cells, 10 μM for 20 minutes
Experimental: Western blot analysis. Compound-treated cells were harvested and lysed. Protein extracts were subjected to electrophoresis in a SDS-polyacrylamide gel. The resolved proteins were transferred onto polyvinylidene difluoride membranes (Amersham Biosciences, Piscataway, N.J., US). After the blocking step, membranes were incubated with primary IgG antibodies, washed, and then incubated with horseradish peroxidase-conjugated anti-rabbit IgG or anti-mouse IgG secondary antibodies. Western blot signals were visualized by chemiluminescence using SuperSignal West Pico chemiluminescence reagent (Pierce, Rockford, Ill., US).
To investigate whether inhibition of DNA replication by DHS can trigger DNA damage, the DNA damage markers phosphor-Chk1 (pChk1, Serine 345) and phosphor-Chk2 (pChk2, Threonine 68) were analyzed in DHS-treated HCT116 cells. […] A comet assay was next used to test if DNA double strand breaks are induced by DHS.

Oc1ccc(/C=C/c2ccc(O)cc2)cc1 [DHS, 4,4′-trans-dihydroxystilbene]
RRM2 levels in thermal shift assay (binding) (RRM2): binds to RRM2 | Effect on cell-cycle progression (HCT116 cells [1]): robust S-phase arrest | BrdU incorporation (HCT116 cells [2]): 9.52% | Cell survival of resistant sublines (KB, KB-Gem and KB-Hu; KB, KB-Gem, KB-Hu, DHS alone): overcame gemcitabine and hydroxyurea resistance | Resensitisation to gemcitabine and hydroxyurea (KB, KB-Gem and KB-Hu; KB-Gem and KB-Hu, 10 μM DHS): resensitized cultured KB-gem and KB-Hu cell lines to gemcitabine and hydroxyurea | Potency relative to resveratrol according to the IC50 values [3]: 10 times | IC50 ([3]; range over four cell lines): 2.3 to 22 µM | IC50 (PANC-1): 22 ± 6.42 µM | Rate of replication fork progression (folk speed) (HCT116 cells [4]): significantly reduced | DNA replication stalling (HCT116 cells [4]; added 2 hours prior to labeling): dramatically caused DNA replication stalling | Re-sensitisation to cisplatin (SKOV3-CP7): re-sensitized the SKOV3/CP7 cells to cisplatin | Sensitivity to DHS alone (SKOV3-CP7): sensitive to DHS treatment alone | Reduction in tumor volume as compared with the vehicle control group (HCT116 xenograft tumor): ~50% | DNA damage (phosphorylated CHK1, pSerine 345) [5]: more potent than resveratrol and the other analogs
